The target of assay [1] is Human Factor XIIa (Homo sapiens (Human), UniProt P00748). As to the kind of experiment: Determination of FXIIa inhibition (fluorogenic substrate H-DPro-Phe-Arg-AFC, IC50 assay). It counts as biochemical. The conditions noted are these: substrate H-DPro-Phe-Arg-AFC at Km, 25° C.; class scale A-G. Put shortly:
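Human FXIIa incubated at 25° C with fluorogenic substrate H-DPro-Phe-Arg-AFC at its Km concentration and varying compound concentrations. Fluorescence release monitored over 5 min at 25° C; linear rate expressed as % of uninhibited activity to derive IC50.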

Assay [2] has as its target Plasma Kallikrein (Homo sapiens (Human), UniProt P03952). Put plainly: Determination of related protease inhibition: Plasma Kallikrein (fluorogenic substrate at Km). As to conditions: 25° C., read-out: IC50 (human PKal). Format: biochemical. In short, it runs like this: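 Human enzyme incubated with test compound over a concentration range and a fluorogenic substrate at its Km concentration. Liberated fluorescence monitored over 5 min at 25 °C; linear rate per minute expressed as % of uninhibited activity, and IC50 taken as the concentration giving 50% inhibition.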

One may read the IC50 as the concentration that gives 50% inhibition.

Chain of Plasma Kallikrein (P03952 391-638): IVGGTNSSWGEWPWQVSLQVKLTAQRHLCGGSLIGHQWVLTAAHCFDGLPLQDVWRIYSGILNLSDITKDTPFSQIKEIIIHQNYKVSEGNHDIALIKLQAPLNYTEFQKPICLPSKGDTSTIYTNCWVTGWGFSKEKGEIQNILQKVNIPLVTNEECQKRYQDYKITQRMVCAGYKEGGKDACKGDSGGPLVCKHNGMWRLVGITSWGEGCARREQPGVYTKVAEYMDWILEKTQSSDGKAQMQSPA
Chain of Plasma Kallikrein (P03952 20-390 partner): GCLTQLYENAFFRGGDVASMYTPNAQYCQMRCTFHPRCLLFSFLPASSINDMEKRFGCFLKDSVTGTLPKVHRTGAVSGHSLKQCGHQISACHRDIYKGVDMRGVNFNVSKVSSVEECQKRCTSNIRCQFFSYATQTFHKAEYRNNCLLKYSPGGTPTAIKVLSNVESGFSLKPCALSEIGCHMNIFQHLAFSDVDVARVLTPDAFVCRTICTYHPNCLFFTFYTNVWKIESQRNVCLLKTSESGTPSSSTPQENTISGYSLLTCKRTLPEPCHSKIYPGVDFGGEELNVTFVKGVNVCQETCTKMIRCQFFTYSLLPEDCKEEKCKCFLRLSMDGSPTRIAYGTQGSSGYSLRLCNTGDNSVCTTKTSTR
Chain of Human Factor XIIa (P00748 373-615): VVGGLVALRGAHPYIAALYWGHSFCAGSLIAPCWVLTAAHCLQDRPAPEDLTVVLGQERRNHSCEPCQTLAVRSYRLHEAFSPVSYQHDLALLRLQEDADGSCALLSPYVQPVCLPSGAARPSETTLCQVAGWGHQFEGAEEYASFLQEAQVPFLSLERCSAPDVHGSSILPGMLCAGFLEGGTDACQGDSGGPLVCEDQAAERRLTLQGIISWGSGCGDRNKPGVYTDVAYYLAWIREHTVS

For `CN1CCC(CNc2ccc(CNc3ccc4c[nH]c(=O)cc4c3)cn2)CC1` [Example 1201, 6-(((6-(((1-methylpiperidin-4-yl)methyl)amino)pyridin-3-yl)methyl)amino)isoquinolin-3(2H)-one], the half-inhibitory concentration (IC50) in assay [1] was 40 to 100 µM; in assay [2], > 40 µM.
`CNC(=O)c1cc(NCc2ccnc(OCC3CCN(C)CC3)c2)cc2ccncc12` [Example 4463]: the IC50 is 40 to 100 µM in assay [1] and > 100 µM in assay [2].
With `CNc1cc(NCc2ccc(N3CCn4c(nnc4C(F)F)C3)nc2)ccn1` [Example 1281, N4-((6-(3-(difluoromethyl)-5,6-dihydro-[1,2,4]triazolo[4,3-a]pyrazin-7(8H)-yl)pyridin-3-yl)methyl)-N2-methylpyridine-2,4-diamine], the half-maximal inhibitory concentration (IC50) is 10 to 40 µM in assay [1] and > 40 µM in assay [2].
In the same order, the values of `Nc1ncc(Cl)c2cc(NCc3ccc(NCC4CCn5ccnc5C4)nc3)ccc12` (stereo not shown) [Example 1044, 4-Chloro-N6-[[6-(5,6,7,8-tetrahydroimidazo[1,2-a]pyridin-7-ylmethylamino)-3-pyridyl]methyl]isoquinoline-1,6-diamine] are 0.1 to 0.3 µM and 3 to 10 µM.
For the compound `CN1CCC(CNc2ccc(CNc3ccncc3)cn2)CC1` [Example 1258, N-((1-methylpiperidin-4-yl)methyl)-5-((pyridin-4-ylamino)methyl)pyridin-2-amine], the IC50 in assay [1] was 10 to 40 µM; in assay [2] it was > 40 µM.
Taken in the same sequence, the figures for `Nc1nccc2c(CCc3ccnc(OCC4CCn5ccnc5C4)c3)cccc12` (stereo not shown) [Example 4452, 5-(2-(2-((5,6,7,8-tetrahydroimidazo[1,2-a]pyridin-7-yl)methoxy)pyridin-4-yl)ethyl)isoquinolin-1-amine] were 0.3 to 1 µM and > 40 µM.
`Nc1ncc(Cl)c2cc(NCc3cccc(CC(=O)N4CCn5ccnc5C4)c3)ccc12` [Example 5442, 2-(3-(((1-amino-4-chloroisoquinolin-6-yl)amino)methyl)phenyl)-1-(5,6-dihydroimidazo[1,2-a]pyrazin-7(8H)-yl)ethan-1-one]: the half-inhibitory concentration (IC50) is 10 to 40 µM in assay [1] and > 40 µM in assay [2].
On to `Nc1ncc(Cl)c2cc(NCc3ccc(N4CCn5nccc5C4CO)nc3)ccc12` (stereo not shown) [Example 1273, (5-(5-(((1-amino-4-chloroisoquinolin-6-yl)amino)methyl)pyridin-2-yl)-4,5,6,7-tetrahydropyrazolo[1,5-a]pyrazin-4-yl)methanol], for which the figures for the IC50 in assay [1] and in assay [2] were 3 to 10 µM and > 40 µM, respectively.
With `Nc1ncc(Cl)c2cc(NCc3ccc(N4CCC(CC(F)F)C4)nc3)ccc12` (stereo not shown) [Example 1266, 4-chloro-N6-((6-(3-(2,2-difluoroethyl)pyrrolidin-1-yl)pyridin-3-yl)methyl)isoquinoline-1,6-diamine], the IC50 in assay [1] is 10 to 40 µM; in assay [2] it was > 40 µM.
In the same order, the values of `Nc1nccc2c(NCc3ccnc(NCCC(=O)N4CCCC4)c3)cccc12` [Example 4302, 3-[(4-{[(1-aminoisoquinolin-5-yl)amino]methyl}pyridin-2-yl)amino]-1-(pyrrolidin-1-yl)propan-1-one] are 1 to 3 µM and 10 to 40 µM.
On to `COc1cc(NCc2ccc(NCC3CCN(C)CC3)nc2)cc2ccncc12` [Example 1103, 8-methoxy-N-((6-(((1-methylpiperidin-4-yl)methyl)amino)pyridin-3-yl)methyl)isoquinolin-6-amine], for which the IC50 in assay [1] and in assay [2] was 10 to 40 µM each time.
For the compound `Cc1cnc2n1CCC(COc1cc(CNc3cccc4c(N)nccc34)ccn1)C2` (single isomer, unassigned) [Example 4445, (R*)-N5-((2-((3-methyl-5,6,7,8-tetrahydroimidazo[1,2-a]pyridin-7-yl)methoxy)pyridin-4-yl)methyl)isoquinoline-1,5-diamine], the IC50 is 0.1 to 0.3 µM in assay [1] and 3 to 10 µM in assay [2].
For `Nc1ncc(Cl)c2cc(NCc3ccnc(OCc4ccn5ccnc5c4)c3)ccc12` [Example 4433, 4-chloro-6-N-[(2-{imidazo[1,2-a]pyridin-7-ylmethoxy}pyridin-4-yl)methyl]isoquinoline-1,6-diamine], the values for the IC50 in assay [1] and in assay [2] were 1 to 3 µM and > 40 µM, respectively.
As to `Cc1cc2c(NCc3ccc(N4CCn5c(nnc5C(F)F)C4)nc3)ccnc2[nH]1` [Example 1278, N-((6-(3-(Difluoromethyl)-5,6-dihydro-[1,2,4]triazolo[4,3-a]pyrazin-7(8H)-yl)pyridin-3-yl)methyl)-2-methyl-1H-pyrrolo[2,3-b]pyridin-4-amine], the results for the 50% inhibitory concentration (IC50) in assay [1] and in assay [2] were 1 to 3 µM and > 40 µM, respectively.
In the same order, the values of `CC(C)N1CCC(OCc2ccc(CNc3ccc4c(N)nccc4c3)c(F)c2)CC1` [Example 2216, 6-N-[(2-fluoro-4-{[(1-isopropylpiperidin-4-yl)oxy]methyl}phenyl)methyl]isoquinoline-1,6-diamine] are 0.1 to 0.3 µM and 1 to 3 µM.
Take `Nc1nccc2c(NCc3ccc(N4CCn5ncc(CO)c5C4)nc3)cccc12` [Example 1269, (5-(5-(((1-aminoisoquinolin-5-yl)amino)methyl)pyridin-2-yl)-4,5,6,7-tetrahydropyrazolo[1,5-a]pyrazin-3-yl)methanol]: the results for the concentration for half-maximal inhibition (IC50) in assay [1] and in assay [2] were 10 to 40 µM and > 40 µM, respectively.
As to `CN1CCC(Oc2ccc(CNc3cnc4[nH]cc(Cl)c4c3)cc2)CC1` [Example 1004, 3-Chloro-N-(4-((1-methylpiperidin-4-yl)oxy)benzyl)-1H-pyrrolo[2,3-b]pyridin-5-amine], the IC50 was 10 to 40 µM in assay [1] and > 40 µM in assay [2].
For the compound `Nc1nccc2c(NCc3ccc(N4Cc5nccn5CC4CO)nc3)cccc12` (stereo not shown) [Example 1137, (7-(5-(((1-aminoisoquinolin-5-yl)amino)methyl)pyridin-2-yl)-5,6,7,8-tetrahydroimidazo[1,2-a]pyrazin-6-yl)methanol], the values for the IC50 in assay [1] and in assay [2] were 1 to 3 µM and > 40 µM, respectively.
Turning to `CN1CCC(COc2cc(CNc3ccc4ncc(=O)[nH]c4c3)ccn2)CC1` [Example 4456], the IC50 in assay [1] is 40 to 100 µM; in assay [2], 10 to 40 µM.
Take `CN1CCC(CNc2ccc(CNc3cc(F)c4cnccc4c3)cn2)CC1` [Example 1207, 8-fluoro-N-((6-(((1-methylpiperidin-4-yl)methyl)amino)pyridin-3-yl)methyl)isoquinolin-6-amine]: the half-maximal inhibitory concentration (IC50) in assay [1] was 40 to 100 µM; in assay [2], > 100 µM.
Regarding `Nc1ncc(Cl)c2cc(NCc3cnc(NCCC(=O)N4CCCC4)nc3)ccc12` [Example 1040, 3-[(5-{[(1-amino-4-chloroisoquinolin-6-yl)amino]methyl}pyrimidin-2-yl)amino]-1-(pyrrolidin-1-yl)propan-1-one], the IC50 in assay [1] was 10 to 40 µM; in assay [2], > 40 µM.
In the same order, the values of `Nc1nccc2c(NCc3ccc(N4CCn5nccc5C4)nc3)cccc12` [Example 1156, N5-((6-(6,7-dihydropyrazolo[1,5-a]pyrazin-5(4H)-yl)pyridin-3-yl)methyl)isoquinoline-1,5-diamine] are 10 to 40 µM and > 40 µM.
`Nc1ncc(Cl)c2cc(NCc3ccnc(OC4CCn5ccnc5C4)c3)ccc12` (stereo not shown) [Example 4432, 4-chloro-6-N-[(2-{5H,6H,7H,8H-imidazo[1,2-a]pyridin-7-yloxy}pyridin-4-yl)methyl]isoquinoline-1,6-diamine]: the IC50 is 1 to 3 µM in assay [1] and > 40 µM in assay [2].

The values are drawn from patent US20240059691A1 (KALVISTA PHARMACEUTICALS LIMITED, priority 2020, published 2024).
